Reference: PubChem BioAssay (NCI)
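Briefly, cells in 96-well plates were exposed to five compound concentrations for 48 h, and endpoints were estimated by linear interpolation. The concentration for 50% growth inhibition is given as GI50. TGI marks complete inhibition of growth.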

Columns and labels:
Assay in all cases: inhibition of tumour cell growth, NCI panel, 48 h
UO-31 renal = test system: UO-31 renal
HCT-15 colon = test system: HCT-15 colon
A549 NSCLC = test system: A549 NSCLC
NCI-H522 lung = test system: NCI-H522 lung
HOP-62 NSCLC = test system: HOP-62 NSCLC
M14 melanoma = test system: M14 melanoma
SK-MEL-2 melanoma = test system: SK-MEL-2 melanoma
OVCAR-8 ovarian = test system: OVCAR-8 ovarian
CAKI-1 renal = test system: CAKI-1 renal
MDA-MB-435 = test system: MDA-MB-435

N#CC(C(=O)CCC(=O)C(C#N)c1ccccc1)c1ccccc1 (centres undefined)
TGI (UO-31 renal): > 100 µM
TGI (HCT-15 colon): > 100 µM
TGI (A549 NSCLC): > 100 µM
TGI (NCI-H522 lung): > 100 µM
TGI (HOP-62 NSCLC): > 100 µM
TGI (M14 melanoma): > 100 µM
TGI (SK-MEL-2 melanoma): > 100 µM
TGI (OVCAR-8 ovarian): > 100 µM
TGI (CAKI-1 renal): > 100 µM

O=C(CC1(O)C(=O)Nc2c(Cl)ccc(Cl)c21)c1ccc2ccccc2c1 (centres undefined)
TGI (UO-31 renal): 34.9 µM
TGI (HCT-15 colon): 27 µM
TGI (A549 NSCLC): 39.6 µM
TGI (NCI-H522 lung): 9.24 µM
TGI (HOP-62 NSCLC): 99.2 µM
TGI (M14 melanoma): 21.3 µM
TGI (SK-MEL-2 melanoma): 26.3 µM
TGI (OVCAR-8 ovarian): 38.3 µM
TGI (CAKI-1 renal): 16.5 µM

Clc1cc(Cc2cc(Cl)c(Cl)c3c2OCOC3)c2c(c1Cl)COCO2
TGI (UO-31 renal): > 100 µM
TGI (HCT-15 colon): > 100 µM
TGI (A549 NSCLC): > 100 µM
TGI (NCI-H522 lung): > 100 µM
TGI (HOP-62 NSCLC): 63 µM
TGI (M14 melanoma): > 100 µM
TGI (SK-MEL-2 melanoma): > 100 µM
TGI (OVCAR-8 ovarian): > 100 µM
TGI (CAKI-1 renal): 49.7 µM

CN(C(=O)C12C3C4C1C1C4(C(=O)C45C6C7C4C4C5C6C74C)C3C12C)C(C)(C)C (centres undefined)
TGI (UO-31 renal): > 100 µM
TGI (HCT-15 colon): > 100 µM
TGI (A549 NSCLC): > 100 µM
TGI (NCI-H522 lung): > 100 µM
TGI (HOP-62 NSCLC): > 100 µM
TGI (M14 melanoma): > 100 µM
TGI (SK-MEL-2 melanoma): > 100 µM
TGI (OVCAR-8 ovarian): > 100 µM
TGI (CAKI-1 renal): > 100 µM

CC1(c2cccc3ccccc23)OC(=O)c2ccccc21 (centres undefined)
TGI (UO-31 renal): 78.7 µM
TGI (HCT-15 colon): 63.7 µM
TGI (A549 NSCLC): 49.7 µM
TGI (NCI-H522 lung): 61.4 µM
TGI (HOP-62 NSCLC): 41.6 µM
TGI (M14 melanoma): 37.2 µM
TGI (SK-MEL-2 melanoma): 62.6 µM
TGI (OVCAR-8 ovarian): > 100 µM
TGI (CAKI-1 renal): 51 µM

O=C(CO)CC(=O)C(=O)Nc1ccccc1
TGI (UO-31 renal): > 100 µM
TGI (HCT-15 colon): > 100 µM
TGI (A549 NSCLC): > 100 µM
TGI (HOP-62 NSCLC): > 100 µM
TGI (M14 melanoma): > 100 µM
TGI (SK-MEL-2 melanoma): > 100 µM
TGI (OVCAR-8 ovarian): > 100 µM

Cc1ccc(/C=C2/SC(Nc3nc(-c4csc(NC5=NC(=O)/C(=C\c6ccc(C)cc6)S5)n4)cs3)=NC2=O)cc1
GI50 (UO-31 renal): 17.9 µM
TGI (UO-31 renal): > 50 µM
GI50 (A549 NSCLC): 7 µM
TGI (A549 NSCLC): 47.6 µM
GI50 (NCI-H522 lung): 21.6 µM
TGI (NCI-H522 lung): > 50 µM
GI50 (HOP-62 NSCLC): 1.94 µM
TGI (HOP-62 NSCLC): 15.5 µM
GI50 (M14 melanoma): 1310 nM
TGI (M14 melanoma): 7.74 µM
GI50 (SK-MEL-2 melanoma): > 50 µM
TGI (SK-MEL-2 melanoma): > 50 µM
GI50 (OVCAR-8 ovarian): 6.05 µM
TGI (OVCAR-8 ovarian): 26.6 µM
GI50 (CAKI-1 renal): 11.1 µM
TGI (CAKI-1 renal): > 50 µM

CC(=O)[CH-]C(=O)c1ccccc1.CC(=O)[CH-]C(=O)c1ccccc1.[Eu+3].[OH-].[OH3+]
GI50 (HCT-15 colon): > 100 µM
TGI (HCT-15 colon): > 100 µM
GI50 (A549 NSCLC): > 100 µM
TGI (A549 NSCLC): > 100 µM
GI50 (HOP-62 NSCLC): > 100 µM
TGI (HOP-62 NSCLC): > 100 µM
GI50 (M14 melanoma): > 100000 nM
TGI (M14 melanoma): > 100 µM
GI50 (OVCAR-8 ovarian): > 100 µM
TGI (OVCAR-8 ovarian): > 100 µM
GI50 (CAKI-1 renal): > 100 µM
TGI (CAKI-1 renal): > 100 µM

O=C1NC(=O)C2C(=O)NC(=O)C1C2(c1ccccc1)c1cc[nH]c1 (centres undefined)
TGI (UO-31 renal): > 100 µM
TGI (HCT-15 colon): > 100 µM
TGI (A549 NSCLC): > 100 µM
TGI (NCI-H522 lung): > 100 µM
TGI (HOP-62 NSCLC): > 100 µM
TGI (M14 melanoma): > 100 µM
TGI (SK-MEL-2 melanoma): > 100 µM
TGI (OVCAR-8 ovarian): > 100 µM
TGI (CAKI-1 renal): > 100 µM

CCC1(c2c(F)c(F)c(N)c(F)c2F)CCC(=O)NC1=O (centres undefined)
TGI (UO-31 renal): > 100 µM
TGI (HCT-15 colon): > 100 µM
TGI (A549 NSCLC): > 100 µM
TGI (NCI-H522 lung): > 100 µM
TGI (HOP-62 NSCLC): > 100 µM
TGI (M14 melanoma): > 100 µM
TGI (SK-MEL-2 melanoma): > 100 µM
TGI (OVCAR-8 ovarian): > 100 µM
TGI (CAKI-1 renal): > 100 µM

CC(=O)OC[C@]1(O)CC[C@@]23CC1C[C@@H]2CCC1C(C)(C)CCC[C@@]13C (some centres undefined)
TGI (UO-31 renal): 29.9 µM
TGI (HCT-15 colon): 30 µM
TGI (A549 NSCLC): 29.6 µM
TGI (NCI-H522 lung): 14.7 µM
TGI (HOP-62 NSCLC): 32.2 µM
TGI (M14 melanoma): 26.9 µM
TGI (OVCAR-8 ovarian): 32 µM
TGI (CAKI-1 renal): 32.4 µM

CCc1c(C#N)c(S[C@@H](C(N)=O)c2ccccc2)nc(N(C)C)c1C#N
GI50 (UO-31 renal): 2.95 µM
TGI (UO-31 renal): > 100 µM
GI50 (HCT-15 colon): > 100 µM
TGI (HCT-15 colon): > 100 µM
GI50 (HOP-62 NSCLC): 3.63 µM
TGI (HOP-62 NSCLC): 17.7 µM
GI50 (M14 melanoma): > 100000 nM
TGI (M14 melanoma): > 100 µM
GI50 (SK-MEL-2 melanoma): > 100 µM
TGI (SK-MEL-2 melanoma): > 100 µM
GI50 (MDA-MB-435): > 100 µM
TGI (MDA-MB-435): > 100 µM
GI50 (OVCAR-8 ovarian): 3.96 µM
TGI (OVCAR-8 ovarian): > 100 µM
GI50 (CAKI-1 renal): 12.9 µM
TGI (CAKI-1 renal): > 100 µM

C=C1C(=O)O[C@H]2[C@H]1CC/C(Cn1cc(-c3cc(C(F)(F)F)cc(C(F)(F)F)c3)nn1)=C\CC[C@@]1(C)O[C@@H]21
GI50 (UO-31 renal): 0.382 µM
TGI (UO-31 renal): 1.58 µM
GI50 (HCT-15 colon): 0.191 µM
TGI (HCT-15 colon): 0.454 µM
GI50 (A549 NSCLC): 1.36 µM
TGI (A549 NSCLC): 3.01 µM
GI50 (NCI-H522 lung): 0.122 µM
TGI (NCI-H522 lung): 0.27 µM
GI50 (HOP-62 NSCLC): 1.56 µM
TGI (HOP-62 NSCLC): 3.31 µM
GI50 (M14 melanoma): 357 nM
TGI (M14 melanoma): 1.55 µM
GI50 (SK-MEL-2 melanoma): 0.348 µM
TGI (SK-MEL-2 melanoma): 1.49 µM
GI50 (MDA-MB-435): 0.743 µM
TGI (MDA-MB-435): 2.08 µM
GI50 (OVCAR-8 ovarian): 0.88 µM
TGI (OVCAR-8 ovarian): 2.2 µM

CCOc1ccccc1NC(=O)CC1SC(=Nc2ccc([N+](=O)[O-])cc2)NC1=O (centres undefined)
TGI (UO-31 renal): 37.7 µM
TGI (A549 NSCLC): 38.9 µM
TGI (HOP-62 NSCLC): 34.3 µM
TGI (M14 melanoma): 50.9 µM
TGI (SK-MEL-2 melanoma): 41.5 µM
TGI (OVCAR-8 ovarian): 51.4 µM

Cc1cc2nc(CCC(=O)O)c(=O)[nH]c2cc1C
TGI (UO-31 renal): > 100 µM
TGI (HCT-15 colon): > 100 µM
TGI (A549 NSCLC): > 100 µM
TGI (NCI-H522 lung): > 100 µM
TGI (HOP-62 NSCLC): > 100 µM
TGI (M14 melanoma): > 100 µM
TGI (SK-MEL-2 melanoma): > 100 µM
TGI (OVCAR-8 ovarian): > 100 µM
TGI (CAKI-1 renal): > 100 µM

O=NNc1ccc(S(=O)(=O)c2ccccc2)cn1
TGI (UO-31 renal): > 100 µM
TGI (HCT-15 colon): > 100 µM
TGI (A549 NSCLC): > 100 µM
TGI (NCI-H522 lung): > 100 µM
TGI (HOP-62 NSCLC): > 100 µM
TGI (M14 melanoma): > 100 µM
TGI (SK-MEL-2 melanoma): > 100 µM
TGI (OVCAR-8 ovarian): > 100 µM
TGI (CAKI-1 renal): > 100 µM

N#Cc1nc2c(S(=O)(=O)c3ccccc3)c(N)n(Cc3cccnc3)c2nc1C#N
GI50 (UO-31 renal): 13.5 µM
TGI (UO-31 renal): > 100 µM
GI50 (HCT-15 colon): > 100 µM
TGI (HCT-15 colon): > 100 µM
GI50 (A549 NSCLC): > 100 µM
TGI (A549 NSCLC): > 100 µM
GI50 (HOP-62 NSCLC): 17.4 µM
TGI (HOP-62 NSCLC): 41.4 µM
GI50 (SK-MEL-2 melanoma): > 100 µM
TGI (SK-MEL-2 melanoma): > 100 µM
GI50 (MDA-MB-435): > 100 µM
TGI (MDA-MB-435): > 100 µM
GI50 (OVCAR-8 ovarian): 10.9 µM
TGI (OVCAR-8 ovarian): > 100 µM
GI50 (CAKI-1 renal): 7.47 µM
TGI (CAKI-1 renal): > 100 µM

Oc1ccccc1C=NCc1ccco1
TGI (UO-31 renal): > 100 µM
TGI (A549 NSCLC): > 100 µM
TGI (HOP-62 NSCLC): > 100 µM
TGI (M14 melanoma): > 100 µM
TGI (OVCAR-8 ovarian): > 100 µM

N#Cc1c(NN)nc(NN)c(C#N)c1-c1ccccc1
TGI (UO-31 renal): > 100 µM
TGI (HCT-15 colon): > 100 µM
TGI (A549 NSCLC): > 100 µM
TGI (HOP-62 NSCLC): > 100 µM
TGI (M14 melanoma): > 100 µM
TGI (SK-MEL-2 melanoma): > 100 µM
TGI (OVCAR-8 ovarian): > 100 µM
TGI (CAKI-1 renal): > 100 µM

N/C(=C\c1ccc(OCc2ccccc2)c(OCc2ccccc2)c1[N+](=O)[O-])C(=O)O
TGI (UO-31 renal): > 100 µM
TGI (A549 NSCLC): > 100 µM
TGI (NCI-H522 lung): > 100 µM
TGI (HOP-62 NSCLC): > 100 µM
TGI (M14 melanoma): > 100 µM
TGI (SK-MEL-2 melanoma): > 100 µM
TGI (OVCAR-8 ovarian): > 100 µM

Cn1c(=O)nc2n(-c3cccc(Br)c3)c3ccccc3nc-2c1=O
TGI (UO-31 renal): 26.3 µM
TGI (HCT-15 colon): 15.1 µM
TGI (A549 NSCLC): 14.5 µM
TGI (NCI-H522 lung): 20.1 µM
TGI (HOP-62 NSCLC): 28 µM
TGI (M14 melanoma): 10.1 µM
TGI (SK-MEL-2 melanoma): 18.2 µM
TGI (OVCAR-8 ovarian): 25.4 µM
TGI (CAKI-1 renal): 32.7 µM
